From patent US6737383B1, “Herbicidal oxadiazolidines” (priority 1999, dated 2004)

Columns and labels:
crabgrass = test: Test B pre/postemergence crabgrass; type: in vivo, Digitaria sanguinalis
Summary of the method: (§1)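 Herbicidal effect was estimated by eye on a ten-point control scale after plants spent twelve to sixteen days in a greenhouse following soil or foliar treatment. Foliar sprays targeted plants at one to four leaves; all doses were formulated in a non-phytotoxic solvent with surfactant.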

corn = test: Test B pre/postemergence corn; type: in vivo, Zea mays
Summary of the method: as §1

soybean = test: Test B pre/postemergence soybean; type: in vivo, Glycine max
Summary of the method: as §1

wild oat = test: Test B pre/postemergence wild oat; type: in vivo, Avena fatua
Summary of the method: as §1

velvetleaf = test: Test B pre/postemergence velvetleaf; type: in vivo, Abutilon theophrasti
Summary of the method: as §1

giant foxtail = test: Test B pre/postemergence giant foxtail; type: in vivo, Setaria faberii
Summary of the method: as §1

wheat = test: Test B pre/postemergence wheat; type: in vivo, Triticum aestivum
Summary of the method: as §1

duck salad = test: Test B flood test duck salad; type: in vivo, Heteranthera limosa
Summary of the method: (§2)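 Each value is a visual injury score relative to controls, with 10 meaning complete control and 0 no effect. Evaluation took place twelve to sixteen days after the 2-leaf-stage plants were treated and kept in the greenhouse.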

surinam grass = test: Test B pre/postemergence surinam grass; type: in vivo, Brachiaria decumbens
Summary of the method: as §1

smallflower flatsedge = test: Test B flood test smallflower flatsedge; type: in vivo, Cyperus difformis
Summary of the method: as §2

blackgrass = test: Test B pre/postemergence blackgrass; type: in vivo, Alopecurus myosuroides
Summary of the method: as §1

sugar beet = test: Test B pre/postemergence sugar beet; type: in vivo, Beta vulgaris
Summary of the method: as §1

purple nutsedge = test: Test B pre/postemergence purple nutsedge; type: in vivo, Cyperus rotundus
Summary of the method: as §1

cocklebur = test: Test B pre/postemergence cocklebur; type: in vivo, Xanthium strumarium
Summary of the method: as §1

rape = test: Test B pre/postemergence rape; type: in vivo, Brassica napus
Summary of the method: as §1

morningglory = test: Test B pre/postemergence morningglory; type: in vivo, Ipomoea hederacea
Summary of the method: as §1

[1] = Postemergence, Rate 62 g/ha, scale of 0 to 10, 0 is no effect, 10 is complete control
[2] = Postemergence, Rate 125 g/ha, scale 0 to 10, 0 is no effect, 10 is complete control
[3] = Postemergence, Rate 500 g/ha, scale of 0 to 10 where 0 is no effect and 10 is complete control
[4] = Preemergence, Rate 62 g/ha, scale 0 to 10 (0 no effect, 10 complete control)
[5] = Preemergence, Rate 125 g/ha, scale 0 to 10, 0 is no effect, 10 is complete control
[6] = Preemergence, Rate 500 g/ha, scale of 0 to 10 where 0 is no effect and 10 is complete control
[7] = Rate 250 g/ha, Postemergence, scale of 0 to 10 where 0 is no effect and 10 is complete control
[8] = Rate 62 g/ha, flood test species, Pre-emergence, visual evaluation after twelve to sixteen days
[9] = Rate 125 g/ha, under heading Pre-emergence, flood test species, visual evaluation after twelve to sixteen days
[10] = Rate 250 g/ha, Pre-emergence (flood test species), scale 0 to 10, 0 is no effect, 10 is complete control
[11] = Rate 500 g/ha, Pre-emergence section of Table B, 0 to 10 scale (0 no effect, 10 complete control)

CCCCCCn1c(=O)on(C(=O)N(c2ccccc2)C(C)C)c1=O [Compound 558]
Crabgrass plant response rating (crabgrass; [1]): 0 | Crabgrass plant response rating (crabgrass; [2]): 0 | Plant response rating, Crabgrass (crabgrass; [3]): 8 | Crabgrass plant response rating (crabgrass; [4]): 8 | Crabgrass plant response rating (crabgrass; [5]): 9 | Crabgrass plant response rating (0 to 10 scale) (crabgrass; Preemergence, Rate 250 g/ha): 9 | Crabgrass plant response rating (crabgrass; [6]): 9 | Plant response rating, Crabgrass (crabgrass; [7]): 8 | Corn plant response rating (corn; [1]): 0 | Corn plant response rating (corn; [2]): 0 | Plant response rating, Corn (corn; [3]): 0 | Corn plant response rating (corn; [4]): 0 | Corn plant response rating (corn; [5]): 0 | Corn plant response rating (0 to 10 scale) (corn; Preemergence, Rate 250 g/ha): 0 | Corn plant response rating (corn; [6]): 0 | Plant response rating, Corn (corn; [7]): 0 | Soybean plant response rating (soybean; [1]): 3 | Plant response rating, Soybean (soybean; [3]): 4 | Soybean plant response rating (soybean; [4]): 0 | Soybean plant response rating (soybean; [5]): 0 | Soybean plant response rating (0 to 10 scale) (soybean; Preemergence, Rate 250 g/ha): 0 | Soybean plant response rating (soybean; [6]): 0 | Plant response rating, Soybean (soybean; [7]): 4 | Wild oats plant response rating (wild oat; [1]): 0 | Plant response rating, Wild oats (wild oat; [3]): 0 | Wild oats plant response rating (wild oat; [4]): 0 | Wild oats plant response rating (wild oat; [5]): 0 | Wild oats plant response rating (0 to 10 scale) (wild oat; Preemergence, Rate 250 g/ha): 0 | Wild oats plant response rating (wild oat; [6]): 2 | Plant response rating, Wild oats (wild oat; [7]): 0 | Velvetleaf plant response rating (velvetleaf; [1]): 0 | Plant response rating, Velvetleaf (velvetleaf; [3]): 2 | Velvetleaf plant response rating (velvetleaf; [4]): 0 | Velvetleaf plant response rating (velvetleaf; [5]): 0 | Velvetleaf plant response rating (0 to 10 scale) (velvetleaf; Preemergence, Rate 250 g/ha): 0 | Velvetleaf plant response rating (velvetleaf; [6]): 0 | Plant response rating, Velvetleaf (velvetleaf; [7]): 0 | Giant foxtail plant response rating (giant foxtail; [1]): 2 | Giant foxtail plant response rating (giant foxtail; [2]): 2 | Plant response rating, Giant foxtail (giant foxtail; [3]): 8 | Giant foxtail plant response rating (giant foxtail; [4]): 8 | Giant foxtail plant response rating (giant foxtail; [5]): 9 | Giant foxtail plant response rating (0 to 10 scale) (giant foxtail; Preemergence, Rate 250 g/ha): 9 | Giant foxtail plant response rating (giant foxtail; [6]): 10 | Plant response rating, Giant foxtail (giant foxtail; [7]): 5 | Wheat plant response rating (wheat; [1]): 0 | Plant response rating, Wheat (wheat; [3]): 0 | Wheat plant response rating (wheat; [4]): 0 | Wheat plant response rating (wheat; [5]): 0 | Wheat plant response rating (0 to 10 scale) (wheat; Preemergence, Rate 250 g/ha): 0 | Wheat plant response rating (wheat; [6]): 2 | Plant response rating, Wheat (wheat; [7]): 0 | Plant response rating, Ducksalad (0 to 10 scale, 0 is no effect, 10 is complete control) (duck salad; [8]): 0 | Ducksalad plant response rating (0 to 10 scale, 0 is no effect, 10 is complete control) (duck salad; [9]): 0 | Ducksalad plant response rating (duck salad; [10]): 0 | Ducksalad plant response rating (duck salad; [11]): 0 | B. signalgrass plant response rating (surinam grass; [1]): 0 | Plant response rating, B. signalgrass (surinam grass; [3]): 3 | B. signalgrass plant response rating (surinam grass; [4]): 0 | B. signalgrass plant response rating (surinam grass; [5]): 0 | B. signalgrass plant response rating (0 to 10 scale, 0 is no effect, 10 is complete control) (surinam grass; Preemergence, Rate 250 g/ha): 3 | B. signalgrass plant response rating (surinam grass; [6]): 6 | Plant response rating, B. signalgrass (surinam grass; [7]): 0 | Plant response rating, S. Flatsedge (0 to 10 scale, 0 is no effect, 10 is complete control) (smallflower flatsedge; [8]): 0 | S. Flatsedge plant response rating (0 to 10 scale, 0 is no effect, 10 is complete control) (smallflower flatsedge; [9]): 0 | S. Flatsedge plant response rating (smallflower flatsedge; [10]): 0 | S. Flatsedge plant response rating (smallflower flatsedge; [11]): 0 | Blackgrass plant response rating (blackgrass; [1]): 0 | Blackgrass plant response rating (blackgrass; [2]): 0 | Plant response rating, Blackgrass (blackgrass; [3]): 2 | Blackgrass plant response rating (blackgrass; [4]): 2 | Blackgrass plant response rating (blackgrass; [5]): 2 | Blackgrass plant response rating (0 to 10 scale) (blackgrass; Preemergence, Rate 250 g/ha): 6 | Blackgrass plant response rating (blackgrass; [6]): 9 | Plant response rating, Blackgrass (blackgrass; [7]): 2 | Sugarbeets plant response rating (sugar beet; [1]): 0 | Plant response rating, Sugarbeets (sugar beet; [3]): 2 | Sugarbeets plant response rating (sugar beet; [4]): 0 | Sugarbeets plant response rating (sugar beet; [5]): 0 | Sugarbeets plant response rating (0 to 10 scale) (sugar beet; Preemergence, Rate 250 g/ha): 0 | Sugarbeets plant response rating (sugar beet; [6]): 2 | Plant response rating, Sugarbeets (sugar beet; [7]): 2 | Nutsedge plant response rating (purple nutsedge; [1]): 0 | Nutsedge plant response rating (purple nutsedge; [2]): 0 | Plant response rating, Nutsedge (purple nutsedge; [3]): 0 | Nutsedge plant response rating (purple nutsedge; [4]): 0 | Nutsedge plant response rating (purple nutsedge; [5]): 0 | Nutsedge plant response rating (0 to 10 scale) (purple nutsedge; Preemergence, Rate 250 g/ha): 0 | Nutsedge plant response rating (purple nutsedge; [6]): 0 | Plant response rating, Nutsedge (purple nutsedge; [7]): 0 | Cocklebur plant response rating (cocklebur; [1]): 0 | Cocklebur plant response rating (cocklebur; [2]): 0 | Plant response rating, Cocklebur (cocklebur; [3]): 0 | Cocklebur plant response rating (cocklebur; [4]): 0 | Cocklebur plant response rating (cocklebur; [5]): 0 | Cocklebur plant response rating (0 to 10 scale) (cocklebur; Preemergence, Rate 250 g/ha): 0 | Cocklebur plant response rating (cocklebur; [6]): 0 | Plant response rating, Cocklebur (cocklebur; [7]): 0 | Rape plant response rating (rape; [1]): 0 | Rape plant response rating (rape; [2]): 0 | Plant response rating, Rape (rape; [3]): 2 | Rape plant response rating (rape; [4]): 0 | Rape plant response rating (rape; [5]): 0 | Rape plant response rating (0 to 10 scale) (rape; Preemergence, Rate 250 g/ha): 2 | Rape plant response rating (rape; [6]): 2 | Plant response rating, Rape (rape; [7]): 0 | Morningglory plant response rating (morningglory; [1]): 10 | Morningglory plant response rating (morningglory; [2]): 10 | Plant response rating, Morningglory (morningglory; [3]): 10 | Morningglory plant response rating (morningglory; [4]): 0 | Morningglory plant response rating (morningglory; [5]): 0 | Morningglory plant response rating (0 to 10 scale) (morningglory; Preemergence, Rate 250 g/ha): 0 | Morningglory plant response rating (morningglory; [6]): 0 | Plant response rating, Morningglory (morningglory; [7]): 10
